Measurements taken from ChEMBL document CHEMBL4411296, “Design and development of Isatin-triazole hydrazones as potential inhibitors of microtubule affinity-regulating kinase 4 for the therapeutic management of cell proliferation and metastasis” (Eur J Med Chem, 2019).

Columns and labels:
Assay type in all cases: functional
[1] = test system: SK-OV-3; experiment: Growth inhibition of human SKOV3 cells assessed as cell growth at 10 uM after 48 hrs by sulforhodamine B assay relative to control; conditions: SK-OV-3, 48 h, read-out: Activity
[2] = test system: RXF 393; experiment: Growth inhibition of human RXF393 cells assessed as cell growth at 10 uM after 48 hrs by sulforhodamine B assay relative to control; conditions: RXF 393, 48 h, read-out: Activity
[3] = test system: MCF7; experiment: Growth inhibition of human MCF7 cells assessed as cell growth at 10 uM after 48 hrs by sulforhodamine B assay relative to control; conditions: MCF7, 48 h, read-out: Activity
[4] = test system: CCRF-CEM; experiment: Growth inhibition of human CCRF-CEM cells assessed as cell growth at 10 uM after 48 hrs by sulforhodamine B assay relative to control; conditions: read-out: Activity
[5] = test system: BT-549; experiment: Growth inhibition of human BT549 cells assessed as cell growth at 10 uM after 48 hrs by sulforhodamine B assay relative to control; conditions: BT-549, 48 h, read-out: Activity
[6] = test system: Hs-578T; experiment: Growth inhibition of human Hs 578T cells assessed as cell growth at 10 uM after 48 hrs by sulforhodamine B assay relative to control; conditions: read-out: Activity
[7] = test system: 786-0; experiment: Growth inhibition of human 786-0 cells assessed as cell growth at 10 uM after 48 hrs by sulforhodamine B assay relative to control; conditions: 786-0, 48 h, read-out: Activity
[8] = test system: EKVX; experiment: Growth inhibition of human EKVX cells assessed as cell growth at 10 uM after 48 hrs by sulforhodamine B assay relative to control; conditions: read-out: Activity
[9] = test system: HT-29; experiment: Growth inhibition of human HT-29 cells assessed as cell growth at 10 uM after 48 hrs by sulforhodamine B assay relative to control; conditions: HT-29, 48 h, read-out: Activity
[10] = test system: MOLT-4; experiment: Growth inhibition of human MOLT4 cells assessed as cell growth at 10 uM after 48 hrs by sulforhodamine B assay relative to control; conditions: MOLT-4, 48 h, read-out: Activity
[11] = test system: SK-MEL-2; experiment: Growth inhibition of human SK-MEL-2 cells assessed as cell growth at 10 uM after 48 hrs by sulforhodamine B assay relative to control; conditions: SK-MEL-2, 48 h, read-out: Activity
[12] = test system: U-251; experiment: Growth inhibition of human U251 cells assessed as cell growth at 10 uM after 48 hrs by sulforhodamine B assay relative to control; conditions: U-251, 48 h, read-out: Activity
[13] = test system: HOP-92; experiment: Growth inhibition of human HOP92 cells assessed as cell growth at 10 uM after 48 hrs by sulforhodamine B assay relative to control; conditions: HOP-92, 48 h, read-out: Activity
[14] = test system: MDA-MB-468; experiment: Growth inhibition of human MDA-MB-468 cells assessed as cell growth at 10 uM after 48 hrs by sulforhodamine B assay relative to control; conditions: MDA-MB-468, 48 h, read-out: Activity
[15] = test system: NCI-H23; experiment: Growth inhibition of human NCI-H23 cells assessed as cell growth at 10 uM after 48 hrs by sulforhodamine B assay relative to control; conditions: NCI-H23, 48 h, read-out: Activity
[16] = test system: SNB-75; experiment: Growth inhibition of human SNB75 cells assessed as cell growth at 10 uM after 48 hrs by sulforhodamine B assay relative to control; conditions: SNB-75, 48 h, read-out: Activity
[17] = test system: UO-31; experiment: Growth inhibition of human UO31 cells assessed as cell growth at 10 uM after 48 hrs by sulforhodamine B assay relative to control; conditions: UO-31, 48 h, read-out: Activity
[18] = test system: ACHN; experiment: Growth inhibition of human ACHN cells assessed as cell growth at 10 uM after 48 hrs by sulforhodamine B assay relative to control; conditions: read-out: Activity
[19] = test system: SK-MEL-28; experiment: Growth inhibition of human SK-MEL-28 cells assessed as cell growth at 10 uM after 48 hrs by sulforhodamine B assay relative to control; conditions: SK-MEL-28, 48 h, read-out: Activity
[20] = test system: NCI-H522; experiment: Growth inhibition of human NCI-H522 cells assessed as cell growth at 10 uM after 48 hrs by sulforhodamine B assay relative to control; conditions: NCI-H522, 48 h, read-out: Activity
[21] = test system: T47D; experiment: Growth inhibition of human T47D cells assessed as cell growth at 10 uM after 48 hrs by sulforhodamine B assay relative to control; conditions: read-out: Activity
[22] = test system: COLO 205; experiment: Growth inhibition of human COLO205 cells assessed as cell growth at 10 uM after 48 hrs by sulforhodamine B assay relative to control; conditions: COLO 205, 48 h, read-out: Activity
[23] = test system: IGROV-1; experiment: Growth inhibition of human IGROV1 cells assessed as cell growth at 10 uM after 48 hrs by sulforhodamine B assay relative to control; conditions: IGROV-1, 48 h, read-out: Activity
[24] = test system: SNB-19; experiment: Growth inhibition of human SNB19 cells assessed as cell growth at 10 uM after 48 hrs by sulforhodamine B assay relative to control; conditions: SNB-19, 48 h, read-out: Activity
[25] = test system: MDA-MB-231; experiment: Growth inhibition of human MDA-MB-231 cells assessed as cell growth at 10 uM after 48 hrs by sulforhodamine B assay relative to control; conditions: MDA-MB-231, 48 h, read-out: Activity
[26] = test system: DU-145; experiment: Growth inhibition of human DU145 cells assessed as cell growth at 10 uM after 48 hrs by sulforhodamine B assay relative to control; conditions: DU-145, 48 h, read-out: Activity
[27] = test system: HOP-62; experiment: Growth inhibition of human HOP62 cells assessed as cell growth at 10 uM after 48 hrs by sulforhodamine B assay relative to control; conditions: HOP-62, 48 h, read-out: Activity
[28] = test system: HCC 2998; experiment: Growth inhibition of human HCC2998 cells assessed as cell growth at 10 uM after 48 hrs by sulforhodamine B assay relative to control; conditions: HCC 2998, 48 h, read-out: Activity
[29] = test system: NCI/ADR-RES; experiment: Growth inhibition of human NCI/ADR-RES cells assessed as cell growth at 10 uM after 48 hrs by sulforhodamine B assay relative to control; conditions: read-out: Activity
[30] = test system: NCI-H226; experiment: Growth inhibition of human NCI-H226 cells assessed as cell growth at 10 uM after 48 hrs by sulforhodamine B assay relative to control; conditions: NCI-H226, 48 h, read-out: Activity
[31] = test system: TK-10; experiment: Growth inhibition of human TK10 cells assessed as cell growth at 10 uM after 48 hrs by sulforhodamine B assay relative to control; conditions: TK-10, 48 h, read-out: Activity
[32] = test system: PC-3; experiment: Growth inhibition of human PC3 cells assessed as cell growth at 10 uM after 48 hrs by sulforhodamine B assay relative to control; conditions: PC-3, 48 h, read-out: Activity
[33] = test system: NCI-H322M; experiment: Growth inhibition of human NCI-H322M cells assessed as cell growth at 10 uM after 48 hrs by sulforhodamine B assay relative to control; conditions: read-out: Activity
[34] = test system: M14; experiment: Growth inhibition of human M14 cells assessed as cell growth at 10 uM after 48 hrs by sulforhodamine B assay relative to control; conditions: M14, 48 h, read-out: Activity

SMILES	growth at 10 µM [1]	growth at 10 µM [2]	growth at 10 µM [3]	growth at 10 µM [4]	growth at 10 µM [5]	growth at 10 µM [6]	growth at 10 µM [7]	growth at 10 µM [8]	growth at 10 µM [9]	growth at 10 µM [10]	growth at 10 µM [11]	growth at 10 µM [12]	growth at 10 µM [13]	growth at 10 µM [14]	growth at 10 µM [15]	growth at 10 µM [16]	growth at 10 µM [17]	growth at 10 µM [18]	growth at 10 µM [19]	growth at 10 µM [20]	further results
COc1ccc(Cn2cc(C(=O)N/N=C3/C(=O)Nc4c(C)cccc43)nn2)cc1	110%	81.9%	84.9%	82.8%	103%	84.1%	43.5%	107%	67.5%	83.5%	91.9%	108%	51.3%	89.2%	89.1%	27.3%	14.8%	38.2%	94.9%	77.5%	growth at 10 µM [21]: 81%; growth at 10 µM [22]: 108%; growth at 10 µM [23]: 84.8%; growth at 10 µM [24]: 97.5%; growth at 10 µM [25]: 51%; growth at 10 µM [26]: 60.4%; growth at 10 µM [27]: 106%; growth at 10 µM [28]: 101%; growth at 10 µM [29]: 71.2%; growth at 10 µM [30]: 75.1%; growth at 10 µM [31]: 56.1%; growth at 10 µM [32]: 61.3%; growth at 10 µM [33]: 89.6%; growth at 10 µM [34]: 71.9%
COc1ccc(Cn2cc(C(=O)N/N=C3/C(=O)Nc4ccc(Br)cc43)nn2)cc1	108%	99.8%	86.3%	92.5%	111%	114%	99.6%	106%	88.5%	80.6%	98%	105%	114%	96.8%	102%	112%	91.5%	110%	116%	89.1%	growth at 10 µM [21]: 106%; growth at 10 µM [22]: 115%; growth at 10 µM [23]: 105%; growth at 10 µM [24]: 97.3%; growth at 10 µM [25]: 108%; growth at 10 µM [26]: 93.7%; growth at 10 µM [27]: 111%; growth at 10 µM [28]: 98.5%; growth at 10 µM [29]: 103%; growth at 10 µM [30]: 97.5%; growth at 10 µM [31]: 97.6%; growth at 10 µM [32]: 99.8%; growth at 10 µM [33]: 102%; growth at 10 µM [34]: 111%
